Measured values from US8080657B2, “Compounds of reverse turn mimetics and the use thereof” (Choongwae Pharma Corporation, priority 2008, dated 2011).
Like-named read-outs stand apart in the source and are kept apart here.

Columns and labels:
[1] = target: T1, cDNA-expressed human hepatic CYP3A4 (Homo sapiens, UniProt P08684); experiment: P450 CYP3A4 inhibitory activity screening (BFC substrate, fluorescence); format: biochemical
T1 construct: purchased BD Gentest 456202
Procedure: P450 CYP3A4 Inhibitory Activity Screening
Assay was conducted in a 200 μL volume in 96-well microtiter plates using cDNA-expressed human hepatic CYP3A4 (supersome, BD Gentest™ #456202). 7-Benzyloxy-4-trifluoromethyl-coumarin (BFC) was used as a substrate for CYP3A4. Test articles and substrate BFC were dissolved in 100% acetonitrile. The final volume of acetonitrile in the incubation mixture was less than 1% (volume/volume). Potassium phosphate buffer (pH 7.4, final concentration 0.1 M), MgCl2 (final concentration 8.3 mM), EDTA (final concentration 1.67 mM), a test article stock solution, a CYP3A4 supersome and NADPH (final concentration 0.25 mM) were added to each well. The reaction was initiated by the addition of substrate (BFC, final concentration 30 µM) after a 10 min pre-incubation at 37° C. After 10 min incubation at 37° C., the reaction was terminated by the addition of 75 μL of acetonitrile:0.5 M Tris-base=4:1 (volume/volume). Thereafter, Fluorescent signal was measured using a fluorometer. BFC metabolite, 7-hydroxy-4-trifluoromethyl-coumarin, was measured using an excitation wavelength of 409 nm and an emission wavelength of 530 nm.

Wnt signaling = experiment: TopFlash reporter gene bioassay in SW480 cells; format: cell-based; conditions: inhibition of Wnt signaling, read-out: RGA, IC50 (μM) TopF
[2] = human CYP3A4 supersome, substrate BFC, 10 min incubation at 37° C., read-out: IC50 values of Compounds against CYP3A4 activity
[3] = P450 CYP3A4 inhibitory activity screening, fluorescent assay, read-out: CYP3A4 inhibition, IC50 (μM) fluorescent assay
[4] = Homo sapiens, SW480, TopFlash reporter gene assay

T1 sequence (P08684 whole entry): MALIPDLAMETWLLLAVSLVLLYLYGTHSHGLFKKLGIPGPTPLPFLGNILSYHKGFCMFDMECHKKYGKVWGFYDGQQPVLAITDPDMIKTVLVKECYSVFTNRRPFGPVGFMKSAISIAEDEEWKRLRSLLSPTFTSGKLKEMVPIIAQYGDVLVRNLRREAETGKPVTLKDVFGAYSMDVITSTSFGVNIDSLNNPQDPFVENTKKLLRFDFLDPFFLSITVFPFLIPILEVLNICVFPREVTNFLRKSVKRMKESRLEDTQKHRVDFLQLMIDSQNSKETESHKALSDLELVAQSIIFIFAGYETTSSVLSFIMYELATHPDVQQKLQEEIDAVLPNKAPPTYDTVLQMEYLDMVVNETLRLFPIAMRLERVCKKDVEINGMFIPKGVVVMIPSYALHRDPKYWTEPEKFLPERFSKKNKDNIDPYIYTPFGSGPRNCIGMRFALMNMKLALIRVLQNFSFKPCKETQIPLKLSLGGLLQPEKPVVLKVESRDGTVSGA

SMILES	IC50 [1, 3]	further results
C=CCN1CC(=O)N2[C@@H](Cc3ccc(O)cc3)C(=O)N(Cc3cccc(NC(=O)OC)c3)C[C@@H]2N1C(=O)NCc1ccccc1 (single isomer, unassigned) [C]	–	IC50 [1, 2]: 24.2 µM
C=CCN1CC(=O)N2[C@@H](Cc3ccc(O)cc3)C(=O)N(Cc3cccc(C(=O)NC)n3)C[C@@H]2N1C(=O)NCc1ccccc1 [A]	–	IC50 [1, 2]: 13.1 µM
C=CCN1CC(=O)N2[C@@H](Cc3ccc(O)cc3)C(=O)N(Cc3cccc(N(C)C(=O)OC)c3)C[C@@H]2N1C(=O)NCc1ccccc1 [D]	–	IC50 [1, 2]: 10.2 µM
C=CCN1CC(=O)N2[C@@H](Cc3ccc(O)cc3)C(=O)N(Cc3cccc4c3nc(C(F)(F)F)n4C)C[C@@H]2N1C(=O)NCc1ccccc1 [E]	–	IC50 [1, 2]: > 10 µM
C=CCN1CC(=O)N2[C@@H](Cc3ccc(O)cc3)C(=O)N(Cc3cccc(C(=O)N4CCCC4)c3)C[C@@H]2N1C(=O)NCc1ccccc1 [compound 1]	5 µM	–
C=CCN1CC(=O)N2[C@@H](Cc3ccc(O)cc3)C(=O)N(Cc3cccc(N(C)C=O)c3)C[C@@H]2N1C(=O)NCc1ccccc1 [compound 2]	5.23 µM	–
C=CCN1CC(=O)N2[C@@H](Cc3ccc(O)cc3)C(=O)N(Cc3cccnc3Br)C[C@@H]2N1C(=O)NCc1ccccc1 [compound 3]	5.33 µM	–
C=CCN1CC(=O)N2[C@@H](Cc3ccc(O)cc3)C(=O)N(Cc3cccc4c3ncn4CC#N)C[C@@H]2N1C(=O)NCc1ccccc1 [compound 4]	5.4 µM	–
C=CCN1CC(=O)N2[C@@H](Cc3ccc(O)cc3)C(=O)N(Cc3cccc(-c4ccc(S(C)(=O)=O)cc4)n3)C[C@@H]2N1C(=O)NCc1ccccc1 [compound 6]	6.78 µM	–
C=CCN1CC(=O)N2[C@@H](Cc3ccc(O)cc3)C(=O)N(Cc3cccnc3N3CCC(N4CCCC4)CC3)C[C@@H]2N1C(=O)NCc1ccccc1 [compound 7]	6.84 µM	–
C=CCN1CC(=O)N2[C@@H](Cc3ccc(O)cc3)C(=O)N(Cc3cccc4c(=O)ccoc34)C[C@@H]2N1C(=O)NCc1ccccc1 [compound 9]	6.95 µM	–
C=CCN1CC(=O)N2[C@@H](Cc3ccc(O)cc3)C(=O)N(Cc3cccc(-c4ccc[nH]c4=O)c3)C[C@@H]2N1C(=O)NCc1ccccc1 [compound 10]	7.02 µM	–
C=CCN1CC(=O)N2[C@@H](Cc3ccc(O)cc3)C(=O)N(Cc3cccc4c3ncn4CCC)C[C@@H]2N1C(=O)NCc1ccccc1 [compound 14]	8.42 µM	–
C=CCN1CC(=O)N2[C@@H](Cc3ccc(OS(N)(=O)=O)cc3)C(=O)N(Cc3cccc(N4CCCC4=O)c3)C[C@@H]2N1C(=O)NCc1ccccc1 [compound 16]	9 µM	–
C=CCN1CC(=O)N2[C@@H](Cc3ccc(O)cc3)C(=O)N(Cc3cccc(C(=O)NO)c3)C[C@@H]2N1C(=O)NCc1ccccc1 [compound 265]	–	IC50 (Wnt signaling; [4]): 9.3 ± 0.53 µM
C=CCN1CC(=O)N2[C@@H](Cc3ccc(O)cc3)C(=O)N(Cc3cccc(C(=O)NC4CCCC4)c3)C[C@@H]2N1C(=O)NCc1ccccc1 [compound 266]	–	IC50 (Wnt signaling; TopFlash reporter gene assay): 9.43 ± 1.65 µM
C=CCN1CC(=O)N2[C@@H](Cc3ccc(O)cc3)C(=O)N(Cc3cccc4c3ncn4CC(N)=O)C[C@@H]2N1C(=O)NCc1ccccc1 [compound 267]	–	IC50 (Wnt signaling; [4]): 6.63 ± 1.35 µM

Now from value to compound, other results behind:

IC50 [1, 3]	SMILES	further results
7.58 µM	C=CCN1CC(=O)N2[C@@H](Cc3ccc(O)cc3)C(=O)N(Cc3cccc(C(=O)OC)c3)C[C@@H]2N1C(=O)NCc1ccccc1 [compound 11]	–
7.65 µM	C=CCN1CC(=O)N2[C@@H](Cc3ccc(O)cc3)C(=O)N(Cc3cccc(C(=O)NCC4CC4)c3)C[C@@H]2N1C(=O)NCc1ccccc1 [compound 12]	–
8 µM	C=CCN1CC(=O)N2[C@@H](Cc3ccc(O)cc3)C(=O)N(Cc3cccc(C(=O)NC)c3)C[C@@H]2N1C(=O)NCc1ccccc1 [compound 13]	–
8.79 µM	C=CCN1CC(=O)N2[C@@H](Cc3ccc(O)cc3)C(=O)N(Cc3cccc(C(C)=O)c3)C[C@@H]2N1C(=O)NCc1ccccc1 [compound 15]	–
9.02 µM	C=CCN1CC(=O)N2[C@@H](Cc3ccc(O)cc3)C(=O)N(Cc3cccc(C(=O)NCC4CCCO4)c3)C[C@@H]2N1C(=O)NCc1ccccc1 (some centres unmarked) [compound 17]	–
9.16 µM	C=CCN1CC(=O)N2[C@@H](Cc3ccc(O)cc3)C(=O)N(Cc3cccc(NS(C)(=O)=O)c3)C[C@@H]2N1C(=O)NCc1ccccc1 [compound 18]	–
